Where two headings read alike, the source gives them in different places.
What was measured:
Study CL-006 plasma PK = format: in vivo, human; settings: for AUC(0-t): read-out: AUC0-8
Source text: Oteseconazole plasma concentrations continued to increase after the 7-day loading dose portion of the Maintenance Period until the end of dosing in an approximately dose-proportional manner FIG. 3.
Mean plasma PK parameters on Day 7 of the Maintenance Period are presented by treatment group in Table 12.

Candida species = test: Phase 2a dose-ranging study in moderate-to-severe acute VVC, effective therapeutic cure; format: in vivo, human; settings: Per Protocol population
Procedure: Oteseconazole has previously been evaluated in a Phase 2a multi-center, randomized, double-blind, active-controlled, parallel-group, dose-ranging study in patients with moderate-to-severe acute VVC. A total of 55 subjects with moderate-to-severe acute VVC (severity score ≥6 and a positive fungal KOH test) participated in the study across 4 dose groups: 1) oteseconazole 300 mg qd for 3 days: 2) 600 mg qd for 3 days: 3) 600 mg bid for 3 days; or 4) a single dose of fluconazole 150 mg followed by matching placebo. […] No safety signals of clinical concern were observed from the safety assessments.
The efficacy of oteseconazole in the treatment of moderate-to-severe acute VVC was evaluated at the TOC visit in the Per Protocol population at the Day 28 test of cure (TOC) visit was, 87%, 86%, 86%, and 75% of subjects receiving the low, mid-, or high-dose oteseconazole or comparator arm of fluconazole, respectively, achieved an effective therapeutic cure (defined as having a total clinical signs and symptoms severity score of ≤1 and a negative culture for Candida species) in the Per Protocol population

[1] = Study CL-011 plasma concentrations; format: in vivo; settings: human
Procedure: A total of 217 subjects were randomized to receive oteseconazole and 109 subjects were randomized to receive placebo. All subjects were followed for 36 weeks after the end of treatment. Blood samples for determination of oteseconazole plasma concentrations were collected at Baseline, Day 14, Week 12, Week 24, Week 36, and Week 48 (End of Study (EOS]). Following the loading dose regimen of 150 mg oteseconazole QD for 7 days, the mean (SD) oteseconazole plasma concentration at Day 14 was 1676.2 (876.27) μg/L.

Study CL-017 plasma PK = format: in vivo, human; settings: for Tmax: Median
Procedure: Oteseconazole mean (SD) plasma concentration during the intense PK sampling period on Day 1 peaked at 4 hours postdose (1425.8 [672.05] μg/L) and decreased slightly by 8 hours postdose (1301.06 [782.76] μg/L). On Day 2, mean (SD) oteseconazole plasma concentrations were 697.7 (264.40) μg/L at predose, then increased to 1895.0 (640.00) μg/L at 4 hours postdose, and decreased to 1555.6 (392.68) μg/L by 8 hours postdose (FIG. 6).
Over the period of Day 14 to Week 50, oteseconazole plasma concentrations were measured at Day 14, Week 14 (end of dosing), and Week 50 (end of follow-up period). Oteseconazole mean (SD) plasma concentration increased from 1396.9 (709.00) μg/L at Day 14 to 2679.3 (1318.94) μg/L at Week 14 before decreasing to 873.4 (534.49) μg/L at Week 50 (FIG. 7).
Median Tmax occurred at 4.00 hours on Day 2; however, Tmax occurred in a narrower range (2.00 to 8.00 hours) compared with that observed on Day 1. The AUC0-8 was 7570 h*μg/L and 11700 h*μg/L, for Day 1 and Day 2, respectively (Table 17).

[2] = Phase 2b study and three Phase 3 studies, plasma concentration at end of dosing; format: in vivo; settings: human, oral, loading dose Days 1 and 2, then 150 mg weekly, read-out: mean plasma concentrations at the end of the dosing period (Week 14)
Procedure: Oteseconazole dosing regimens will also incorporate a 150 mg once weekly maintenance dose phase for 11 weeks. The initial loading dose given on Days 1 and 2 combined with maintenance dosing of 150 mg oteseconazole weekly for a total treatment duration of 12 weeks was efficacious in preventing recurrence of acute VVC episodes for the duration of the study (48-50 weeks). Based on the PK results from a Phase 2b study and three Phase 3 studies, mean plasma concentrations of approximately 2.5 to 3.5 μg/mL are observed at the end of the dosing period (Week 14).

[3] = Study CL-003 in subjects with tinea pedis, plasma PK; format: in vivo, human; settings: for AUC(0-t): read-out: AUC0−8
Procedure: Oteseconazole was slowly absorbed, with median time to peak plasma concentration values that ranged from 5.0 to 6.0 hours after dosing on Days 1 and 14 for all treatments. […] The Cmax values on Day 1 were similar between the mid- and high-dose treatments, since the first dose on that day was 600 mg for each treatment.

[4] = human, plasma, 150 mg, Day 7, 150 mg, 12 weeks
[5] = human, plasma, 150 mg, Day 7, 150 mg, 24 weeks
[6] = human, plasma, 300 mg, Day 7, 300 mg, 12 weeks
[7] = human, plasma, 300 mg, Day 7, 300 mg, 24 weeks
[8] = human, plasma, High Dose 1200 mg/300 mg, Day 1
[9] = human, plasma, High Dose 1200 mg/300 mg, Day 14
[10] = human, plasma, Low Dose 200 mg/50 mg, Day 1
[11] = human, plasma, Low Dose 200 mg/50 mg, Day 14
[12] = human, plasma, Mid Dose 600 mg/150 mg, Day 1
[13] = human, plasma, Mid Dose 600 mg/150 mg, Day 14

O[C@@](Cn1cnnn1)(c1ccc(F)cc1F)C(F)(F)c1ccc(-c2ccc(OCC(F)(F)F)cc2)cn1 [Oteseconazole, oteseconazole]
Tmax (Study CL-006 plasma PK; Day 7, 150 mg, 24 weeks): 4.93 h
Tmax (Study CL-006 plasma PK; Day 7, 300 mg, 12 weeks): 4.92 h
Cmax (Study CL-006 plasma PK; [4]): 1340 ng/mL
AUC(0-t) (Study CL-006 plasma PK; [4]): 9120 ng·h/mL
Cmax (Study CL-006 plasma PK; [5]): 1800 ng/mL
AUC(0-t) (Study CL-006 plasma PK; [5]): 12300 ng·h/mL
Cmax (Study CL-006 plasma PK; [6]): 2750 ng/mL
AUC(0-t) (Study CL-006 plasma PK; [6]): 20500 ng·h/mL
Cmax (Study CL-006 plasma PK; [7]): 3120 ng/mL
AUC(0-t) (Study CL-006 plasma PK; [7]): 21600 ng·h/mL
concentration at 48 week (Study CL-006 plasma PK; human, plasma, 150 mg oteseconazole): 2150 ng/mL
concentration at 48 week (Study CL-006 plasma PK; human, plasma, 300 mg oteseconazole): 5090 ng/mL
Tmax (Study CL-006 plasma PK; human, plasma, Day 7, 150 mg, 12 weeks, read-out: Tmax): 4 h
half-life (Study CL-006 plasma PK; human, plasma, calculated using a population PK approach): ~171 days
subjects achieving effective therapeutic cure at Day 28 TOC visit (Candida species; high dose, oteseconazole 600 mg bid for 3 days): 86%
subjects achieving effective therapeutic cure at Day 28 TOC visit (Candida species; low dose, oteseconazole 300 mg qd for 3 days): 87%
subjects achieving effective therapeutic cure at Day 28 TOC visit (Candida species; mid dose, oteseconazole 600 mg qd for 3 days): 86%
concentration at 12 week ([1]; 150 mg, Week 12, maximum concentration, read-out: mean (SD) plasma concentration): 3400 ng/mL
concentration at 48 week ([1]; 150 mg, Week 48, read-out: mean (SD) plasma concentration): 1150 ng/mL
concentration at 14 day ([1]; Day 14, after loading 150 mg QD for 7 days, read-out: mean (SD) plasma concentration): 1680 ng/mL
Clast (Study CL-017 plasma PK; 3 × 150 mg (450 mg), Day 2, Geometric Mean): 1510 ng/mL
AUC(0-t) (Study CL-017 plasma PK; human, plasma, oral, 450 mg, 3 × 150 mg (450 mg), Day 2, Geometric Mean, read-out: AUC0-8): 11700 ng·h/mL
concentration at 4 h (Study CL-017 plasma PK; human, plasma, oral, 450 mg, Day 2, 4 hours postdose, read-out: mean (SD) plasma concentration): 1900 ng/mL
concentration at 8 h (Study CL-017 plasma PK; human, plasma, oral, 450 mg, Day 2, 8 hours postdose, read-out: mean (SD) plasma concentration): 1560 ng/mL
AUC(0-t) (Study CL-017 plasma PK; human, plasma, oral, 450 mg, Day 2, as given in text, read-out: AUC0-8): 11700 ng·h/mL
AUC(0-t) (Study CL-017 plasma PK; human, plasma, oral, 600 mg, 600 mg dose on Day 1, as given in text, read-out: AUC0-24): 20600 ng·h/mL
AUC(0-t) (Study CL-017 plasma PK; human, plasma, oral, 600 mg, 4 × 150 mg (600 mg), Day 1, Geometric Mean, N 8, read-out: AUC0-24): 20600 ng·h/mL
AUC(0-t) (Study CL-017 plasma PK; human, plasma, oral, 600 mg, 4 × 150 mg (600 mg), Day 1, Geometric Mean, read-out: AUC0-8): 7570 ng·h/mL
concentration at 24 h (Study CL-017 plasma PK; human, plasma, oral, 600 mg, 4 × 150 mg (600 mg), Day 1, Geometric Mean, read-out: Clast): 651 ng/mL
concentration at 24 h (Study CL-017 plasma PK; human, plasma, oral, 600 mg, 24 hours after 600 mg Day 1 dose (predose Day 2), read-out: plasma concentrations, range across subjects): 354 to 1150 ng/mL
concentration at 4 h (Study CL-017 plasma PK; human, plasma, oral, 600 mg, Day 1, 4 hours postdose, read-out: mean (SD) plasma concentration): 1430 ng/mL
concentration at 8 h (Study CL-017 plasma PK; human, plasma, oral, 600 mg, Day 1, 8 hours postdose, read-out: mean (SD) plasma concentration): 1300 ng/mL
AUC(0-t) (Study CL-017 plasma PK; human, plasma, oral, 600 mg, Day 1, as given in text, read-out: AUC0-8): 7570 ng·h/mL
concentration at 24 h (Study CL-017 plasma PK; human, plasma, oral, 600 mg, Day 2, predose, read-out: mean (SD) plasma concentration): 698 ng/mL
concentration at 14 day (Study CL-017 plasma PK; human, plasma, oral, Day 14, read-out: mean (SD) plasma concentration): 1400 ng/mL
concentration at 14 week (Study CL-017 plasma PK; human, plasma, oral, Week 14 (end of dosing), read-out: mean (SD) plasma concentration): 2680 ng/mL
concentration at 50 week (Study CL-017 plasma PK; human, plasma, oral, Week 50 (end of follow-up period), read-out: mean (SD) plasma concentration): 873 ng/mL
Cmax (Study CL-017 plasma PK; human, plasma, oral, 3 × 150 mg (450 mg), Day 2, Geometric Mean): 2010 ng/mL
Tmax (Study CL-017 plasma PK; human, plasma, oral, 3 × 150 mg (450 mg), Day 2): 4 h
Cmax (Study CL-017 plasma PK; human, plasma, oral, 4 × 150 mg (600 mg), Day 1, Geometric Mean): 1620 ng/mL
Tmax (Study CL-017 plasma PK; human, plasma, oral, 4 × 150 mg (600 mg), Day 1): 4.01 h
concentration at 14 week [2]: 2500 to 3500 ng/mL
increase in Cmax, high-dose versus mid-dose treatment ([3]; Day 14, 2-fold dose difference): 15%
increase in concentration (Cmax), mid versus low dose ([3]; Days 1 and 14, 3-fold increase in dose): 2 fold
Cmax achieved as share of target ([3]; high-dose group): about 25%
Cmax [3, 8]: 757 ng/mL
Tmax [3, 8]: 5 h
AUC(0-t) [3, 8]: 3540 ng·h/mL
Cmax [3, 9]: 2520 ng/mL
Tmax [3, 9]: 5.02 h
AUC(0-t) [3, 9]: 17600 ng·h/mL
Cmax [3, 10]: 366 ng/mL
Tmax [3, 10]: 6 h
AUC(0-t) [3, 10]: 1680 ng·h/mL
Cmax [3, 11]: 1090 ng/mL
Tmax [3, 11]: 5 h
AUC(0-t) [3, 11]: 7950 ng·h/mL
Cmax [3, 12]: 679 ng/mL
Tmax [3, 12]: 6 h
AUC(0-t) [3, 12]: 3320 ng·h/mL
Cmax [3, 13]: 2180 ng/mL
Tmax [3, 13]: 5 h
AUC(0-t) [3, 13]: 16100 ng·h/mL
half-life ([3]; human, plasma, blood sampling for 168 days (4032 hours), read-out: terminal phase half-life, range of median values): 86.7 to 172 days
Cmax achieved as share of target ([3]; mid-dose group): about 50%

From patent US20240398773A1, “COMPOSITIONS COMPRISING OTESECONAZOLE” (Mycovia Pharmaceuticals, Inc., priority 2021, published 2024)
